Article PMC2737711 (The Journal of neuroscience : the official journal of the …, 2009)

Tests used:
rat KCC2 = molecular target: T1, rat KCC2 (Rattus norvegicus, UniProt Q63633); assay: […] influx into Xenopus oocytes; format: cell-based; conditions: hypotonic medium, 79 mM chloride, 2 mM RbCl; 0.01 mM ouabain; inhibitor
T1 sequence (Q63633 1-1139): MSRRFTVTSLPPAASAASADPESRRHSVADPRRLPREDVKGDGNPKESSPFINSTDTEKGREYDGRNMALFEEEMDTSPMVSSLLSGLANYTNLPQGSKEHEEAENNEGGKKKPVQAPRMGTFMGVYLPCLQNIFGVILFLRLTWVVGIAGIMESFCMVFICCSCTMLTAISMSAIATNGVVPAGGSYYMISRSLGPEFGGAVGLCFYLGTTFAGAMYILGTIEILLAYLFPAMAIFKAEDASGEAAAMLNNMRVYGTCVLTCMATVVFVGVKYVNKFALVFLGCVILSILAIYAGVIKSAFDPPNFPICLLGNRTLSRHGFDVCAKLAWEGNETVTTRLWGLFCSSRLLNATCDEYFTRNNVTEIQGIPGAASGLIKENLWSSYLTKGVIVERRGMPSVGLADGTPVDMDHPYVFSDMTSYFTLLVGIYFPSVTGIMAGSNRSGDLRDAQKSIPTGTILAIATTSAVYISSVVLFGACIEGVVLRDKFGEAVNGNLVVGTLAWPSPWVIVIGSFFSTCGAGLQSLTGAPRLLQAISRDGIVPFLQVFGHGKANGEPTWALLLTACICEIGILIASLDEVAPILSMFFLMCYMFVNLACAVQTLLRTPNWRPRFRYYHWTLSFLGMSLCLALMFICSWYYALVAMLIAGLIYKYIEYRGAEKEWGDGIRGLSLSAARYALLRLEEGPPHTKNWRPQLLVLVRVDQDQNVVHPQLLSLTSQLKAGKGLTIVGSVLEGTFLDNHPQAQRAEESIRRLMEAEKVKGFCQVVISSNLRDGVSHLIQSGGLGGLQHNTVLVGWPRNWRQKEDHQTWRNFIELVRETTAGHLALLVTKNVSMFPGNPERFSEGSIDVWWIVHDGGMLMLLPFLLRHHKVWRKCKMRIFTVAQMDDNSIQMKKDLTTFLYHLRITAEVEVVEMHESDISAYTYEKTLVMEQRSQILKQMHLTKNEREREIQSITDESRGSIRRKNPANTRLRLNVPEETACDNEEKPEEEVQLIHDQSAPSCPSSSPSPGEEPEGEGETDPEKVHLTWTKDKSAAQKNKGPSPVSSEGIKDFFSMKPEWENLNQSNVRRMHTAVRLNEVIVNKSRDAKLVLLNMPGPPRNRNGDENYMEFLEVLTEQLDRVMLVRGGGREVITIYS

C. elegans KCC-2 = molecular target: T2, C. elegans KCC-2 (Caenorhabditis elegans, UniProt G5EEC9); assay: […] influx into Xenopus oocytes; format: cell-based
T2 sequence (G5EEC9 1-1079): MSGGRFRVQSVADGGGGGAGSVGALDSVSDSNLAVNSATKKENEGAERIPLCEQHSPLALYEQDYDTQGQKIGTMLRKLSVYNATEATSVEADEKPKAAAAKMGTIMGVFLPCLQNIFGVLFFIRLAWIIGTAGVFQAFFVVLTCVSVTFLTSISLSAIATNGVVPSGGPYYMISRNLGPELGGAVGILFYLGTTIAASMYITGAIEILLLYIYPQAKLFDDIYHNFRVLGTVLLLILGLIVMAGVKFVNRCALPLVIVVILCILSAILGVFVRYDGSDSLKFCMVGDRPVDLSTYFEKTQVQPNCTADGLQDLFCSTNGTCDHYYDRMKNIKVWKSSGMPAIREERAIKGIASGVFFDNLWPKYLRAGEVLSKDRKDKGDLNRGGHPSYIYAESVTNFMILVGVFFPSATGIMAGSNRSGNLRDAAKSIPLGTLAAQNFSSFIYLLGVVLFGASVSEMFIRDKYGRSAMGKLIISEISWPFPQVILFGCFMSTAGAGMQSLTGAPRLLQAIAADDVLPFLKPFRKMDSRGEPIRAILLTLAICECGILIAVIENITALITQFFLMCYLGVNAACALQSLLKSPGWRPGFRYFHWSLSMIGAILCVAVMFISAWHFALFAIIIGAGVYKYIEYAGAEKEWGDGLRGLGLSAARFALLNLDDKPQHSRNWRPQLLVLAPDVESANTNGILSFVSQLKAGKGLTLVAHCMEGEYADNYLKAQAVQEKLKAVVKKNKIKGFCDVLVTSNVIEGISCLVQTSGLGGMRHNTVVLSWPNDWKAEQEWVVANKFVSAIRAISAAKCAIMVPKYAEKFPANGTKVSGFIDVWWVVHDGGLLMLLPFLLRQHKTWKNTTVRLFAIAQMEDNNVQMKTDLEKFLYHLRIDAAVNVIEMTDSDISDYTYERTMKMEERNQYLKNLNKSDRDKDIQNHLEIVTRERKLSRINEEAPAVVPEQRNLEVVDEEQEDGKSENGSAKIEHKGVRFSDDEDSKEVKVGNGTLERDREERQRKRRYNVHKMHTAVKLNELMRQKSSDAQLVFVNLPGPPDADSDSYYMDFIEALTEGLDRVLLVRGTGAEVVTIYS

IC50 (rat KCC2): 72 ± 16 µM
IC50 (C. elegans KCC-2): 32 ± 3 µM
Structure (SMILES): CCCCNc1cc(C(=O)O)cc(S(N)(=O)=O)c1Oc1ccccc1 [bumetanide]
